Tests used:
Type in all cases: in vivo
[1] = tested on: barnyardgrass (Echinochloa crus-galli); test: Test A preemergence, barnyardgrass; conditions: 0 to 100 scale (0 no effect, 100 complete control)
In short: (§1)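 Greenhouse pre/postemergence test, loam–sand soil. Postemergence plants one- to two-leaf, 2–10 cm. Visual injury rating ~10 d after treatment, 0–100 vs untreated.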

[2] = tested on: large crabgrass (Digitaria sanguinalis); test: Test A preemergence, large crabgrass; conditions: 0 to 100 scale (0 no effect, 100 complete control)
In short: as §1

[3] = tested on: giant foxtail (Setaria faberi); test: Test A preemergence, giant foxtail; conditions: 0 to 100 scale (0 no effect, 100 complete control)
In short: as §1

[4] = tested on: morningglory (Ipomoea spp.); test: Test A preemergence, morningglory; conditions: 0 to 100 scale (0 no effect, 100 complete control)
In short: as §1

[5] = tested on: pigweed (Amaranthus retroflexus); test: Test A preemergence, pigweed; conditions: 0 to 100 scale (0 no effect, 100 complete control)
In short: as §1

[6] = tested on: velvetleaf (Abutilon theophrasti); test: Test A preemergence, velvetleaf; conditions: 0 to 100 scale (0 no effect, 100 complete control)
In short: as §1

[7] = tested on: wheat (Triticum aestivum); test: Test A preemergence, wheat; conditions: 0 to 100 scale (0 no effect, 100 complete control)
In short: as §1

[8] = tested on: corn (Zea mays); test: Test A preemergence, corn; conditions: 125 g ai/ha, 0 to 100 scale (0 no effect, 100 complete control)
In short: as §1

[9] = tested on: barnyardgrass (Echinochloa crus-galli); test: Test A postemergence, barnyardgrass; conditions: 0 to 100 scale (0 no effect, 100 complete control)
In short: as §1

[10] = tested on: large crabgrass (Digitaria sanguinalis); test: Test A postemergence, large crabgrass; conditions: 0 to 100 scale (0 no effect, 100 complete control)
In short: as §1

[11] = tested on: giant foxtail (Setaria faberi); test: Test A postemergence, giant foxtail; conditions: 0 to 100 scale (0 no effect, 100 complete control)
In short: as §1

[12] = tested on: morningglory (Ipomoea spp.); test: Test A postemergence, morningglory; conditions: 0 to 100 scale (0 no effect, 100 complete control)
In short: as §1

[13] = tested on: pigweed (Amaranthus retroflexus); test: Test A postemergence, pigweed; conditions: 0 to 100 scale (0 no effect, 100 complete control)
In short: as §1

[14] = tested on: velvetleaf (Abutilon theophrasti); test: Test A postemergence, velvetleaf; conditions: 0 to 100 scale (0 no effect, 100 complete control)
In short: as §1

[15] = tested on: wheat (Triticum aestivum); test: Test A postemergence, wheat; conditions: 0 to 100 scale (0 no effect, 100 complete control)
In short: as §1

[16] = tested on: corn (Zea mays); test: Test A postemergence, corn; conditions: 0 to 100 scale (0 no effect, 100 complete control)
In short: as §1

[17] = tested on: Italian ryegrass (Lolium multiflorum); test: Test B preemergence, Italian ryegrass; conditions: Table B, preemergence; visual rating on a 0 to 100 scale (0 no effect, 100 complete control), 13 to 15 days after treatment; application rate of this section not shown
Excerpt: (§2) Seeds of plant species selected from blackgrass (Alopecurus myosuroides), downy bromegrass (Bromus tectorum), green foxtail (Setaria viridis), Italian ryegrass (Lolium multiflorum), wheat (Triticum aestivum), wild oat (Avena fatua), catchweed bedstraw (Galium aparine), bermudagrass (Cynodon dactylon), Surinam grass (Brachiaria decumbens), cocklebur (Xanthium strumarium), corn (Zea mays), large crabgrass (Digitaria sanguinalis), woolly cupgrass (Eriochloa villosa), giant foxtail (Setaria faberii), goosegrass (Eleusine indica), johnsongrass (Sorghum halepense), kochia (Kochia scoparia), lambsquarters (Chenopodium album), morningglory (Ipomoea coccinea), nightshade (eastern black nightshade, Solanum ptycanthum), yellow nutsedge (Cyperus esculentus), pigweed (Amaranthus retroflexus), ragweed (common ragweed, Ambrosia elatior), soybean (Glycine max), sunflower (common oilseed sunflower, Helianthus annuus), Russian thistle (Salsola kali), and velvetleaf (Abutilon theophrasti) were planted into a blend of loam soil and sand and treated preemergence with test compounds formulated in a non-phytotoxic solvent mixture which included a surfactant. Treated plants and controls were maintained in a greenhouse for 13 to 15 days, after which time all species were compared to controls and visually evaluated. Plant response ratings, summarized in Table B, are based on a scale of 0 to 100 where 0 is no effect and 100 is complete control. A dash (-) response means no test result.

[18] = tested on: wheat (Triticum aestivum); test: Test B preemergence, wheat; conditions: Table B, preemergence; visual rating on a 0 to 100 scale (0 no effect, 100 complete control), 13 to 15 days after treatment; application rate of this section not shown
Excerpt: as §2

[19] = tested on: Surinam grass (Brachiaria decumbens); test: Test B preemergence, Surinam grass; conditions: Table B, preemergence; visual rating on a 0 to 100 scale (0 no effect, 100 complete control), 13 to 15 days after treatment; application rate of this section not shown
Excerpt: as §2

[20] = tested on: soybean (Glycine max); test: Test B preemergence, soybean; conditions: Table B, preemergence; visual rating on a 0 to 100 scale (0 no effect, 100 complete control), 13 to 15 days after treatment; application rate of this section not shown
Excerpt: as §2

[21] = tested on: sunflower (common oilseed sunflower, Helianthus annuus); test: Test B preemergence, sunflower; conditions: Table B, preemergence; visual rating on a 0 to 100 scale (0 no effect, 100 complete control), 13 to 15 days after treatment; application rate of this section not shown
Excerpt: as §2

[22] = tested on: velvetleaf (Abutilon theophrasti); test: Test B preemergence, velvetleaf; conditions: Table B, preemergence; visual rating on a 0 to 100 scale (0 no effect, 100 complete control), 13 to 15 days after treatment; application rate of this section not shown
Excerpt: as §2

[23] = tested on: rice (Oryza sativa); test: Test B flooded paddy test, rice; conditions: Flood, scale 0 to 100
In short: (§3)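 Compounds were added directly to paddy water over 2-leaf-stage plants in pots flooded 3 cm above soil, water depth maintained. Visual injury scored against controls after 13 to 15 days in greenhouse, 0 (none) to 100 (complete control); dash indicates no result.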

[24] = tested on: umbrella sedge (Cyperus difformis); test: Test B flooded paddy test, umbrella sedge; conditions: Flood, scale 0 to 100
In short: as §3

[25] = tested on: ducksalad (Heteranthera limosa); test: Test B flooded paddy test, ducksalad; conditions: Flood, scale 0 to 100
In short: as §3

[26] = tested on: barnyardgrass (Echinochloa crus-galli); test: Test B flooded paddy test, barnyardgrass; conditions: Flood
In short: as §3

Structure (SMILES): Cn1c(=O)c(CS(=O)(=O)C2=NOC(C)(C)C2)c(C(F)(F)F)c2ccccc21 [Compound 1, 3-[[(4,5-dihydro-5,5-dimethyl-3-isoxazolyl)sulfonyl]methyl]-1-methyl-4-(trifluoromethyl)-2(1H)-quinolinone]
- Plant response rating, Barnyardgrass ([1]; 125 g ai/ha): 0
- Plant response rating, Barnyardgrass ([1]; 500 g ai/ha): 80
- Plant response rating, Crabgrass, Large ([2]; 125 g ai/ha): 0
- Plant response rating, Crabgrass, Large ([2]; 500 g ai/ha): 50
- Plant response rating, Foxtail, Giant ([3]; 125 g ai/ha): 30
- Plant response rating, Foxtail, Giant ([3]; 500 g ai/ha): 90
- Plant response rating, Morningglory ([4]; 125 g ai/ha): 0
- Plant response rating, Morningglory ([4]; 500 g ai/ha): 0
- Plant response rating, Pigweed ([5]; 125 g ai/ha): 0
- Plant response rating, Pigweed ([5]; 500 g ai/ha): 60
- Plant response rating, Velvetleaf ([6]; 125 g ai/ha): 0
- Plant response rating, Velvetleaf ([6]; 500 g ai/ha): 0
- Plant response rating, Wheat ([7]; 125 g ai/ha): 0
- Plant response rating, Wheat ([7]; 500 g ai/ha): 0
- Plant response rating, Corn [8]: 0
- Plant response rating, Barnyardgrass ([9]; 125 g ai/ha): 0
- Plant response rating, Barnyardgrass ([9]; 500 g ai/ha): 80
- Plant response rating, Crabgrass, Large ([10]; 125 g ai/ha): 10
- Plant response rating, Crabgrass, Large ([10]; 500 g ai/ha): 70
- Plant response rating, Foxtail, Giant ([11]; 125 g ai/ha): 20
- Plant response rating, Foxtail, Giant ([11]; 500 g ai/ha): 80
- Plant response rating, Morningglory ([12]; 125 g ai/ha): 0
- Plant response rating, Morningglory ([12]; 500 g ai/ha): 0
- Plant response rating, Pigweed ([13]; 125 g ai/ha): 0
- Plant response rating, Pigweed ([13]; 500 g ai/ha): 50
- Plant response rating, Velvetleaf ([14]; 125 g ai/ha): 0
- Plant response rating, Velvetleaf ([14]; 500 g ai/ha): 20
- Plant response rating, Wheat ([15]; 125 g ai/ha): 0
- Plant response rating, Wheat ([15]; 500 g ai/ha): 0
- Plant response rating, Corn ([16]; 125 g ai/ha): 0
- Plant response rating, Corn ([16]; 500 g ai/ha): 0
- Plant response rating, Ryegrass, Italian [17]: 0
- Plant response rating, Wheat [18]: 0
- Plant response rating, Surinam Grass [19]: 0
- Plant response rating, Soybean [20]: 0
- Plant response rating, Sunflower [21]: 0
- Plant response rating, Velvetleaf [22]: 0
- Plant response rating, Rice ([23]; 31 g ai/ha): 0
- Plant response rating, Rice ([23]; 62 g ai/ha): 0
- Plant response rating, Rice ([23]; 125 g ai/ha): 0
- Plant response rating, Rice ([23]; 250 g ai/ha): 20
- Plant response rating, Sedge, Umbrella ([24]; 31 g ai/ha): 0
- Plant response rating, Sedge, Umbrella ([24]; 62 g ai/ha): 0
- Plant response rating, Sedge, Umbrella ([24]; 125 g ai/ha): 0
- Plant response rating, Sedge, Umbrella ([24]; 250 g ai/ha): 0
- Plant response rating, Ducksalad ([25]; 31 g ai/ha): 0
- Plant response rating, Ducksalad ([25]; 62 g ai/ha): 0
- Plant response rating, Ducksalad ([25]; 125 g ai/ha): 0
- Plant response rating, Ducksalad ([25]; 250 g ai/ha): 0
- Plant response rating, Barnyardgrass ([26]; 31 g ai/ha, scale 0 to 100): 20
- Plant response rating, Barnyardgrass ([26]; 62 g ai/ha, scale 0 to 100): 20
- Plant response rating, Barnyardgrass ([26]; 125 g ai/ha, scale 0 to 100): 20
- Plant response rating, Barnyardgrass ([26]; 250 g ai/ha, scale 0 to 100 (0 no effect, 100 complete control)): 20
